Test results taken from PubChem BioAssay (NCI).
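Grown in 96-well plates, cells were treated for 48 hours with each compound at five concentrations. Insufficient inhibition: endpoint recorded as highest concentration tested. GI50 is the concentration that inhibits growth by half. Definition used: TGI = concentration required for complete inhibition of growth.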

Tests used:
Test in all cases: DTP human tumour cell line panel, 48 h
UACC-257 melanoma = test system: UACC-257 melanoma
A549 NSCLC = test system: A549 NSCLC
HT29 colon = test system: HT29 colon
CCRF-CEM leukemia = test system: CCRF-CEM leukemia
RXF 393 renal = test system: RXF 393 renal
EKVX NSCLC = test system: EKVX NSCLC
786-0 renal = test system: 786-0 renal
K-562 leukemia = test system: K-562 leukemia
HCT-116 colon = test system: HCT-116 colon
NCI-H23 lung = test system: NCI-H23 lung
SR leukemia = test system: SR leukemia
BT-549 breast = test system: BT-549 breast
SF-295 CNS = test system: SF-295 CNS
NCI-H226 lung = test system: NCI-H226 lung
SW-620 colon = test system: SW-620 colon
HCC-2998 colon = test system: HCC-2998 colon
MCF7 breast = test system: MCF7 breast
CAKI-1 renal = test system: CAKI-1 renal
SK-MEL-5 melanoma = test system: SK-MEL-5 melanoma
RPMI-8226 leukemia = test system: RPMI-8226 leukemia
TK-10 renal = test system: TK-10 renal
HOP-92 NSCLC = test system: HOP-92 NSCLC
UO-31 renal = test system: UO-31 renal
HS 578T breast = test system: HS 578T breast
SF-268 CNS = test system: SF-268 CNS
SN12C renal = test system: SN12C renal
MDA-MB-231 breast = test system: MDA-MB-231 breast
IGROV1 ovarian = test system: IGROV1 ovarian
SK-OV-3 ovarian = test system: SK-OV-3 ovarian
M14 melanoma = test system: M14 melanoma
NCI-H522 lung = test system: NCI-H522 lung
SK-MEL-28 melanoma = test system: SK-MEL-28 melanoma
SK-MEL-2 melanoma = test system: SK-MEL-2 melanoma
SNB-75 CNS = test system: SNB-75 CNS
OVCAR-8 ovarian = test system: OVCAR-8 ovarian
DU-145 prostate = test system: DU-145 prostate
OVCAR-5 ovarian = test system: OVCAR-5 ovarian
PC-3 prostate = test system: PC-3 prostate
COLO 205 colon = test system: COLO 205 colon
KM12 colon = test system: KM12 colon
HL-60(TB) leukemia = test system: HL-60(TB) leukemia
MOLT-4 leukemia = test system: MOLT-4 leukemia
U251 CNS = test system: U251 CNS
ACHN renal = test system: ACHN renal
UACC-62 melanoma = test system: UACC-62 melanoma
MDA-MB-435 = test system: MDA-MB-435
MALME-3M melanoma = test system: MALME-3M melanoma
OVCAR-3 ovarian = test system: OVCAR-3 ovarian
MDA-MB-468 breast = test system: MDA-MB-468 breast
SNB-19 CNS = test system: SNB-19 CNS
HOP-62 NSCLC = test system: HOP-62 NSCLC
HCT-15 colon = test system: HCT-15 colon
NCI-H460 lung = test system: NCI-H460 lung
A498 renal = test system: A498 renal
LOX IMVI melanoma = test system: LOX IMVI melanoma
OVCAR-4 ovarian = test system: OVCAR-4 ovarian
T-47D breast = test system: T-47D breast
SF-539 CNS = test system: SF-539 CNS

N#Cc1c(NC(=O)c2ccc(C(F)(F)F)cc2)sc2c1CCC(O)=C2
GI50 (UACC-257 melanoma): 6.64 µM | TGI (UACC-257 melanoma): 29.4 µM | GI50 (A549 NSCLC): 6.36 µM | TGI (A549 NSCLC): 24.1 µM | GI50 (HT29 colon): 4.61 µM | TGI (HT29 colon): 18.3 µM | GI50 (CCRF-CEM leukemia): 3.21 µM | TGI (CCRF-CEM leukemia): > 100 µM | GI50 (RXF 393 renal): 2.38 µM | TGI (RXF 393 renal): 12.7 µM | GI50 (EKVX NSCLC): 7.4 µM | TGI (EKVX NSCLC): 31.4 µM | GI50 (786-0 renal): 5.53 µM | TGI (786-0 renal): 22.1 µM | GI50 (K-562 leukemia): 2.23 µM | TGI (K-562 leukemia): > 100 µM | GI50 (HCT-116 colon): 3.49 µM | TGI (HCT-116 colon): 13.4 µM | GI50 (NCI-H23 lung): 4.91 µM | TGI (NCI-H23 lung): 22 µM | GI50 (SR leukemia): 1.48 µM | TGI (SR leukemia): > 100 µM | GI50 (BT-549 breast): 2.82 µM | TGI (BT-549 breast): 19.3 µM | GI50 (SF-295 CNS): 4.08 µM | TGI (SF-295 CNS): 16.7 µM | GI50 (NCI-H226 lung): 4.03 µM | TGI (NCI-H226 lung): 19.2 µM | GI50 (SW-620 colon): 3.13 µM | TGI (SW-620 colon): 14 µM | GI50 (HCC-2998 colon): 7.46 µM | TGI (HCC-2998 colon): 21.2 µM | GI50 (MCF7 breast): 3.03 µM | TGI (MCF7 breast): 21.7 µM | GI50 (CAKI-1 renal): 3.05 µM | TGI (CAKI-1 renal): 16 µM | GI50 (SK-MEL-5 melanoma): 2.71 µM | TGI (SK-MEL-5 melanoma): 9.4 µM | GI50 (RPMI-8226 leukemia): 3.53 µM | TGI (RPMI-8226 leukemia): > 100 µM | GI50 (TK-10 renal): 13.3 µM | TGI (TK-10 renal): 50.3 µM | GI50 (HOP-92 NSCLC): 2.85 µM | TGI (HOP-92 NSCLC): 21.9 µM | GI50 (UO-31 renal): 2.12 µM | TGI (UO-31 renal): 16.4 µM | GI50 (HS 578T breast): 2.32 µM | TGI (HS 578T breast): 14.1 µM | GI50 (SF-268 CNS): 3.87 µM | TGI (SF-268 CNS): 20.7 µM | GI50 (SN12C renal): 4.08 µM | TGI (SN12C renal): 16.5 µM | GI50 (MDA-MB-231 breast): 2.96 µM | TGI (MDA-MB-231 breast): 14.3 µM | GI50 (IGROV1 ovarian): 5.23 µM | TGI (IGROV1 ovarian): 19 µM | GI50 (SK-OV-3 ovarian): 4.36 µM | TGI (SK-OV-3 ovarian): 20 µM | GI50 (M14 melanoma): 3.6 µM | TGI (M14 melanoma): 15.8 µM | GI50 (NCI-H522 lung): 2.53 µM | TGI (NCI-H522 lung): 12 µM | GI50 (SK-MEL-28 melanoma): 6.17 µM | TGI (SK-MEL-28 melanoma): 25.8 µM | GI50 (SK-MEL-2 melanoma): 3.21 µM | TGI (SK-MEL-2 melanoma): 11.7 µM | GI50 (SNB-75 CNS): 1.12 µM | TGI (SNB-75 CNS): 6.1 µM | GI50 (OVCAR-8 ovarian): 5.71 µM | TGI (OVCAR-8 ovarian): 22.3 µM | GI50 (DU-145 prostate): 6.53 µM | TGI (DU-145 prostate): 22 µM | GI50 (OVCAR-5 ovarian): 5.38 µM | TGI (OVCAR-5 ovarian): 25 µM | GI50 (PC-3 prostate): 6.12 µM | TGI (PC-3 prostate): > 100 µM | GI50 (COLO 205 colon): 13.4 µM | TGI (COLO 205 colon): 30 µM | GI50 (KM12 colon): 3.16 µM | TGI (KM12 colon): 13.1 µM | GI50 (HL-60(TB) leukemia): 2.77 µM | TGI (HL-60(TB) leukemia): > 100 µM | GI50 (MOLT-4 leukemia): 4.43 µM | TGI (MOLT-4 leukemia): > 100 µM | GI50 (U251 CNS): 4.13 µM | TGI (U251 CNS): 16.5 µM | GI50 (ACHN renal): 6.81 µM | TGI (ACHN renal): 27.9 µM | GI50 (UACC-62 melanoma): 3.23 µM | TGI (UACC-62 melanoma): 16.2 µM | GI50 (MDA-MB-435): 1.23 µM | TGI (MDA-MB-435): 3.31 µM | GI50 (MALME-3M melanoma): 2.29 µM | TGI (MALME-3M melanoma): 12 µM | GI50 (OVCAR-3 ovarian): 3.24 µM | TGI (OVCAR-3 ovarian): 12 µM | GI50 (MDA-MB-468 breast): 2.12 µM | TGI (MDA-MB-468 breast): 8.11 µM | GI50 (SNB-19 CNS): 7.46 µM | TGI (SNB-19 CNS): 24.3 µM | GI50 (HOP-62 NSCLC): 4.49 µM | TGI (HOP-62 NSCLC): 17.8 µM | GI50 (HCT-15 colon): 3.51 µM | TGI (HCT-15 colon): 15.8 µM | GI50 (NCI-H460 lung): 3.53 µM | TGI (NCI-H460 lung): 14.2 µM | GI50 (A498 renal): 14 µM | TGI (A498 renal): 34.2 µM | GI50 (LOX IMVI melanoma): 4.56 µM | TGI (LOX IMVI melanoma): 16.8 µM | GI50 (OVCAR-4 ovarian): 7.47 µM | TGI (OVCAR-4 ovarian): 35 µM | GI50 (T-47D breast): 3.13 µM | TGI (T-47D breast): 24.9 µM | GI50 (SF-539 CNS): 2.1 µM | TGI (SF-539 CNS): 6.92 µM
